Reference: paper PMC6018746, “Activation of the p53-MDM4 regulatory axis defines the anti-tumour response to PRMT5 inhibition through its role in regulating cellular splicing” (Scientific Reports, 2018)

Key:
[1] = system: p53 mutant MCL xenograft model, REC-1; assay: REC-1 xenograft efficacy; assay type: in vivo, mouse; conditions: 100 mg/kg BID
From the text: We also observed an increase in the expression of p53 target genes including p21/CDKN1 (Supplementary Figure S7B), confirming induction of p53 activity.

mouse pharmacokinetics = assay type: in vivo; conditions: data not shown
SDMA in Z-138 tumors = assay: SDMA in Z-138 tumour xenograft; assay type: in vivo, mouse; conditions: 7 days
Protocol: Treatment was re-instated on day 32 for 2 weeks followed by a 1 week holiday. […] QD doses evaluated include 0, 50, 100, and 200 mg/kg. […] Sampling 2 hours post last dose. […] SDMA ELISA was performed on homogenized cells and frozen tumour lysates. Fluorescence intensity generated by addition of Luminata Forte (Millipore #WBKUF0500) substrate was measured on a PerkinElmer Envision plate reader.

[2] = target: panel containing 20 methyltransferases including PRMT9; assay: methyltransferase selectivity panel; assay type: biochemical; conditions: other methyltransferases including PRMT9, substrates near KM^app
Protocol: (A) Plots indicating the mode of inhibition against
IC50 values are graphed as a function of substrate concentration relative to Kmapp
(top panel, SAM; bottom panel, H4 1-21 peptide). Data points (closed vs. open
circles) represent two independent experiments. (B) IC50 values plotted as a
represent data generated using 0.8 nM PRMT5/MEP50 while closed circles
represent data with 4 nM PRMT5/MEP50 (top panel).
following a 60 minute Enz:SAM:Inh preincubation fit to a 3-parameter dose-
Enz:SAM:Inh preincubation. IC50 values were determined by fitting inhibition
data to a 3-parameter dose-response equation. Ki*app values were calculated
from IC50 values using the Cheng-Prusoff equation for a competitive inhibitor.

[3] = system: SDMA in a panel of breast and lymphoma cell lines; assay: SDMA EC50 in breast and lymphoma cell line panel; assay type: cell-based; conditions: Homo sapiens; all cell lines of the panel; read-out: SDMA EC50 range
Protocol: SDMA ELISA was performed on homogenized cells and frozen tumour lysates. Fluorescence intensity generated by addition of Luminata Forte (Millipore #WBKUF0500) substrate was measured on a PerkinElmer Envision plate reader.
Cells were seeded in optical bottom cell culture plates and targets were probed with fluorescent secondary antibodies and DAPI stain. Quantification of nuclear SDMA and SMD3 levels was performed with a Molecular Devices […] high-content fluorescence imager and image analysis was performed with ImageExpress software.

[4] = body weight of Z-138 tumour bearing mice; assay type: in vivo, mouse; conditions: any of the treatment groups
From the text: Supplementary Figure S7. […] Z-138 tumour
Treatments were reinstated on day 32 for 2 weeks followed by a one week holiday.

[5] = system: p53 wild-type Z-138 xenograft model; assay: Z-138 xenograft efficacy; assay type: in vivo, mouse; conditions: 21 days
[6] = system: MDM4 alternative splicing in Z-138 cells; assay: MDM4 splicing RT-PCR; assay type: cell-based, human; conditions: 3-day exposure, 1.6 nM to 1 μM tested
Protocol: We confirmed PRMT5 inhibitor-induced alternative splicing of MDM4 from the full-length isoform (MDM4-FL) to the short isoform (MDM4-S) at both treatment concentrations, with the most robust changes after 3 days of compound exposure.
RNA was isolated from cell pellets as described above and was converted to cDNA using ABI High Capacity Reverse Transcription Reagents (4274966) per manufacturer’s instructions and PCR was performed as described elsewhere. Reaction products were separated using agarose ethidium bromide gel electrophoresis and visualized using a Bio-Rad VersaDoc Model 5000 imaging system.

Compound | TGI [1] [%] | elimination half-life (mouse pharmacokinetics) [h] | SDMA % vehicle (SDMA in Z-138 tumors; 0.5 mg/kg BID) [%] | SDMA % vehicle (SDMA in Z-138 tumors; 1.4 mg/kg BID) [%] | SDMA % vehicle (SDMA in Z-138 tumors; 4.2 mg/kg BID) [%] | SDMA % vehicle (SDMA in Z-138 tumors; 12.5 mg/kg BID) [%] | SDMA % vehicle (SDMA in Z-138 tumors; 25 mg/kg BID) [%] | SDMA % vehicle (SDMA in Z-138 tumors; 50 mg/kg BID) [%] | SDMA % vehicle (SDMA in Z-138 tumors; 50 mg/kg QD) [%] | SDMA % vehicle (SDMA in Z-138 tumors; 100 mg/kg BID) [%] | SDMA % vehicle (SDMA in Z-138 tumors; 100 mg/kg QD) [%] | SDMA % vehicle (SDMA in Z-138 tumors; 200 mg/kg QD) [%] | IC50 [2] [nM] | EC50 [3] [nM] | body weight [4] | tumour growth inhibition (TGI) ([5]; 25 mg/kg BID oral) [%] | tumour growth inhibition (TGI) ([5]; 50 mg/kg BID oral) [%] | tumour growth inhibition (TGI) ([5]; 100 mg/kg BID oral) [%] | concentration at which MDM4 alternative splicing was evident [6] [nM]
CC(=O)N1CCC(Nc2cc(C(=O)NC[C@H](O)CN3CCc4ccccc4C3)ncn2)CC1 [GSK3326595] | 55 | 1.8 | 71 | 47 | 28 | 9 | 5 | 8 | 16 | 2 | 12 | 9 | > 40000 | 2 to 160 | No significant body weight losses | 52.1 | 88.03 | 106.05 | –
O=C(NC[C@H](O)CN1CCc2ccccc2C1)c1ccnc(NC2CCC2)c1 [GSK3203591] | – | – | – | – | – | – | – | – | – | – | – | – | – | – | – | – | – | – | ≥ 8
